In the NIST ThermoML archive (doi:10.1016/j.jct.2010.03.011):
Numbers after ± are expanded uncertainties.

How the values were obtained:
[1] = refractive index (Na D-line) (dimensionless); settings: 298.2 K; 101.33 kPa; Liquid; Standard Abbe refractometry
[2] = 298.2 K; 101 kPa; Liquid; Vibrating tube method
[3] = relative permittivity at various frequencies (dimensionless); settings: 298.2 K; 101.33 kPa; Liquid; Frequency=0.1 MHz
[4] = xn = mol fraction of the nth substance listed; settings: 298.2 K, 101 kPa, Liquid, Vibrating tube method
[5] = refractive index (Na D-line) (dimensionless); xn = mol fraction of the nth substance listed; settings: 298.2 K, 101 kPa, Liquid, Standard Abbe refractometry
[6] = relative permittivity at various frequencies (dimensionless); xn = mol fraction of the nth substance listed; settings: 298.2 K, 101.33 kPa, Liquid, Frequency=0.1 MHz, Parallel plate capacitor

CC(O)CCO (stereo unspecified) [1,3-butanediol]
Settings | mass density [kg/m3] | refractive index | relative permittivity
[1] | – | 1.4383 ± 0.0005 | –
[2] | 1001.22 ± 0.87 | – | –
[3] | – | – | 28.692 ± 0.01

OCCCCO [1,4-butanediol]
Settings | mass density [kg/m3] | refractive index | relative permittivity
[1] | – | 1.4447 ± 0.0005 | –
[2] | 1013.45 ± 0.9 | – | –
[3] | – | – | 31.539 ± 0.01

OCCCCO [1,4-butanediol] + CCCCC(CC)CO
x1 = 1
Settings | mass density [kg/m3] | refractive index | relative permittivity
[4] | 1013.45 ± 0.9 | – | –
[5] | – | 1.4447 ± 0.0005 | –
[6] | – | – | 31.539 ± 0.01

CCCCC(CC)CO (stereo unspecified) [2-ethyl-1-hexanol] + OCCCCO
Settings | mass density, [4] [kg/m3] | refractive index, [5] | relative permittivity, [6]
x2 = 0.099 | 840.72 ± 0.73 | 1.4299 ± 0.0005 | 8.795 ± 0.031
x2 = 0.25 | 858.3 ± 0.76 | 1.4313 ± 0.0005 | 11.008 ± 0.034
x2 = 0.4 | 881.5 ± 0.8 | 1.4329 ± 0.0005 | 13.706 ± 0.04
x2 = 0.5 | 897.59 ± 0.83 | 1.4343 ± 0.0005 | 15.945 ± 0.048
x2 = 0.6 | 916.55 ± 0.86 | 1.4358 ± 0.0005 | 18.45 ± 0.05
x2 = 0.649 | 926.55 ± 0.89 | 1.4368 ± 0.0005 | 19.741 ± 0.059
x2 = 0.749 | 948.41 ± 0.93 | 1.439 ± 0.0005 | 22.751 ± 0.063
x2 = 0.9 | 984.92 ± 1 | 1.4424 ± 0.0005 | 27.546 ± 0.07

OCCCCO [1,4-butanediol] + C1COCCO1
Settings | refractive index, [5] | relative permittivity, [6]
x1 = 0.029 | 1.4207 ± 0.0005 | 2.525 ± 0.026
x1 = 0.098 | 1.422 ± 0.001 | 3.353 ± 0.03
x1 = 0.2 | 1.4243 ± 0.0005 | 4.916 ± 0.035
x1 = 0.293 | 1.4263 ± 0.0005 | 6.656 ± 0.04
x1 = 0.4 | 1.4288 ± 0.0005 | 8.798 ± 0.047
x1 = 0.491 | 1.4311 ± 0.0005 | 11.193 ± 0.058
x1 = 0.6 | 1.434 ± 0.001 | 14.491 ± 0.067
x1 = 0.693 | 1.4363 ± 0.0005 | 17.889 ± 0.075
x1 = 0.8 | 1.4392 ± 0.0005 | 21.914 ± 0.084
x1 = 0.9 | 1.4418 ± 0.0005 | 26.541 ± 0.093

CCCCC(CC)CO (stereo unspecified) [2-ethyl-1-hexanol] + CC(O)C(C)O
Settings | mass density, [4] [kg/m3] | refractive index, [5] | relative permittivity, [6]
x2 = 0 | 830.62 ± 0.68 | 1.4293 ± 0.0005 | 7.611 ± 0.01
x2 = 0.1 | 837.79 ± 0.72 | 1.4294 ± 0.0005 | 8.197 ± 0.018
x2 = 0.25 | 854.38 ± 0.75 | 1.4297 ± 0.0005 | 9.478 ± 0.022
x2 = 0.401 | 874.23 ± 0.78 | 1.4301 ± 0.0005 | 11.075 ± 0.025
x2 = 0.499 | 890.64 ± 0.81 | 1.4308 ± 0.0005 | 12.36 ± 0.03
x2 = 0.55 | 897.94 ± 0.83 | 1.4311 ± 0.0005 | 13.125 ± 0.032
x2 = 0.65 | 916.49 ± 0.86 | 1.4318 ± 0.0005 | 14.659 ± 0.034
x2 = 0.75 | 934.5 ± 0.89 | 1.4324 ± 0.0005 | 16.407 ± 0.038
x2 = 0.898 | 966.52 ± 0.96 | 1.4337 ± 0.0005 | 19.166 ± 0.04

CC(O)C(C)O (stereo unspecified) [2,3-butanediol]
Settings | mass density [kg/m3] | refractive index | relative permittivity
[1] | – | 1.4348 ± 0.0005 | –
[2] | 994.31 ± 0.86 | – | –
[3] | – | – | 21.282 ± 0.01

CC(O)C(C)O (stereo unspecified) [2,3-butanediol] + CCCCC(CC)CO
x1 = 1
Settings | mass density [kg/m3] | refractive index | relative permittivity
[4] | 994.31 ± 0.86 | – | –
[5] | – | 1.4348 ± 0.0005 | –
[6] | – | – | 21.282 ± 0.01

CC(O)CCO (stereo unspecified) [1,3-butanediol] + C1COCCO1
Settings | refractive index, [5] | relative permittivity, [6]
x1 = 0.029 | 1.4206 ± 0.0005 | 2.488 ± 0.024
x1 = 0.098 | 1.4217 ± 0.0005 | 3.231 ± 0.027
x1 = 0.2 | 1.4233 ± 0.0005 | 4.644 ± 0.033
x1 = 0.293 | 1.4251 ± 0.0005 | 6.316 ± 0.039
x1 = 0.4 | 1.4265 ± 0.0005 | 8.425 ± 0.043
x1 = 0.491 | 1.4282 ± 0.0005 | 10.465 ± 0.052
x1 = 0.6 | 1.4301 ± 0.0005 | 13.528 ± 0.063
x1 = 0.693 | 1.4319 ± 0.0005 | 16.725 ± 0.071
x1 = 0.8 | 1.4343 ± 0.0005 | 20.583 ± 0.074
x1 = 0.9 | 1.4362 ± 0.0005 | 24.335 ± 0.076

CCCCC(CC)CO (stereo unspecified) [2-ethyl-1-hexanol]
Settings | mass density [kg/m3] | refractive index | relative permittivity
[1] | – | 1.4293 ± 0.0005 | –
[2] | 830.62 ± 0.68 | – | –
[3] | – | – | 7.611 ± 0.01

CC(O)C(C)O (stereo unspecified) [2,3-butanediol] + C1COCCO1
Settings | refractive index, [5] | relative permittivity, [6]
x1 = 0.03 | 1.4205 ± 0.0005 | 2.386 ± 0.016
x1 = 0.096 | 1.4212 ± 0.0005 | 2.798 ± 0.018
x1 = 0.19 | 1.4223 ± 0.0005 | 3.592 ± 0.023
x1 = 0.29 | 1.4235 ± 0.0005 | 4.778 ± 0.027
x1 = 0.38 | 1.4249 ± 0.0005 | 5.985 ± 0.033
x1 = 0.488 | 1.4264 ± 0.0005 | 7.881 ± 0.04
x1 = 0.6 | 1.4281 ± 0.0005 | 10.205 ± 0.045
x1 = 0.69 | 1.4294 ± 0.0005 | 12.277 ± 0.054
x1 = 0.82 | 1.4316 ± 0.0005 | 16.001 ± 0.059
x1 = 0.9 | 1.433 ± 0.001 | 18.397 ± 0.061

CC(O)CCO (stereo unspecified) [1,3-butanediol] + CCCCC(CC)CO
Settings | mass density, [4] [kg/m3] | refractive index, [5] | relative permittivity, [6]
x1 = 0.1 | 839.88 ± 0.72 | 1.4295 ± 0.0005 | 8.625 ± 0.028
x1 = 0.25 | 855.62 ± 0.75 | 1.4301 ± 0.0005 | 10.605 ± 0.031
x1 = 0.401 | 875.88 ± 0.78 | 1.431 ± 0.001 | 13.065 ± 0.037
x1 = 0.501 | 891.81 ± 0.82 | 1.4318 ± 0.0005 | 15.056 ± 0.043
x1 = 0.6 | 909.96 ± 0.85 | 1.4329 ± 0.0005 | 17.255 ± 0.048
x1 = 0.649 | 919.85 ± 0.87 | 1.4334 ± 0.0005 | 18.524 ± 0.051
x1 = 0.75 | 939.91 ± 0.91 | 1.4346 ± 0.0005 | 21.039 ± 0.055
x1 = 0.9 | 974.72 ± 0.97 | 1.4367 ± 0.0005 | 25.228 ± 0.062
x1 = 1 | 1001.22 ± 0.87 | 1.4383 ± 0.0005 | 28.692 ± 0.01
